{"source": "patent US12577226B2", "about": "“Compounds for treating Huntington's disease” (PTC THERAPEUTICS, INC., priority 2019, dated 2026)"}
{"test_system": "Endogenous Huntingtin Protein (capture with MW1 (expanded polyglutamine) or MAB2166 antibody)", "test": "Endogenous Huntingtin Protein Assay (ELISA-based Meso Scale Discovery electrochemiluminescence assay)", "assay_type": "cell-based", "settings": "MSD electrochemiluminescence platform", "procedure": "Compounds of Formula (I), Formula (II), or Formula (III) were tested using the Meso Scale Discovery (MSD) Assay provided in International Application No. PCT/US2016/066042, filed on Dec. 11, 2016 and claiming priority to U.S. Provisional Application U.S. 62/265,652 filed on Dec. 10, 2015, the entire contents of which are incorporated herein by reference.\nThe Endogenous Huntingtin Protein assay used in Example 1 was developed using the ELISA-based MSD electrochemiluminescence assay platform.\nMeso Scale Discovery (MSD) 96-well or 384-well plates were coated overnight at 4° C. with MW1 (expanded polyglutamine) or MAB2166 monoclonal antibody (for capture) at a concentration of 1 μg/mL in PBS (30 μL per well). Plates were then washed three times with 300 μL wash buffer (0.05% Tween-20 in PBS) and blocked (100 μL blocking buffer; 5% BSA in PBS) for 4-5 hours at room temperature with rotational shaking and then washed three times with wash buffer.\nSamples (25 μL) were transferred to the antibody-coated MSD plate and incubated overnight at 4° C. After removal of the lysates, the plate was washed three times with wash buffer, and 25 μL of #5656S (Cell signaling; rabbit monoclonal) secondary antibody (diluted to 0.25 μg/mL in 0.05% Tween-20 in blocking buffer) was added to each well and incubated with shaking for 1 Hour at room temperature. Following incubation with the secondary antibody, the wells were rinsed with wash buffer after which 25 μL of goat anti-rabbit SULFO TAG secondary detection antibody (required aspect of the MSD system) (diluted to 0.25 μg/mL in 0.05% Tween-20 in blocking buffer) was added to each well and incubated with shaking for 1 hour at room temperature. After rinsing three times with wash buffer, 150 μL of read buffer T with surfactant (MSD) were added to each empty well, and the plate was imaged on a SI 6000 imager (MSD) according to manufacturers' instructions provided for 96- or 384-well plates.", "units": {"IC50": "nM"}}
{"compound": "2-(6-{[(3S,4S)-3-fluoro-2,2,6,6-tetramethylpiperidin-4-yl]amino}pyridazin-3-yl)-5-(1H-pyrazol-3-yl)pyridin-3-ol and 2-(6-{[(3R,4R)-3-fluoro-2,2,6,6-tetramethylpiperidin-4-yl]amino}pyridazin-3-yl)-5-(1H-pyrazol-3-yl)pyridin-3-ol [Compound 16]", "IC50": "≤ 100"}
{"compound": "COc1cc(-c2cnc(-c3ccc(OC4CC(C)(C)NC(C)(C)C4F)nn3)c(O)c2)nn2cc(C)nc12", "note": "(mixture of isomers) [Compound 57, 2-(6-{[(3R,4S)-3-fluoro-2,2,6,6-tetramethylpiperidin-4-yl]oxy}pyridazin-3-yl)-5-(8-methoxy-2-methylimidazo[1,2-b]pyridazin-6-yl)pyridin-3-ol and 2-(6-{[(3S,4R)-3-fluoro-2,2,6,6-tetramethylpiperidin-4-yl]oxy}pyridazin-3-yl)-5-(8-methoxy-2-methylimidazo[1,2-b]pyridazin-6-yl)pyridin-3-ol]", "IC50": "≤ 100"}
{"compound": "C[C@@H]1CN(c2ccc(-c3ncc(-c4ccc5ncnn5c4)cc3O)nn2)C[C@H](C)N1", "note": "[Compound 94, 2-{6-[(3R,5S)-3,5-dimethylpiperazin-1-yl]pyridazin-3-yl}-5-([1,2,4]triazolo[1,5-a]pyridin-6-yl)pyridin-3-ol and 2-{6-[(3S,5R)-3,5-dimethylpiperazin-1-yl]pyridazin-3-yl}-5-([1,2,4]triazolo[1,5-a]pyridin-6-yl)pyridin-3-ol]", "IC50": "500 to 1000"}
{"compound": "CN(c1ccc(-c2ncc(-c3ccn(C)n3)cc2O)nn1)C1CC(C)(C)NC(C)(C)C1", "note": "[Compound 13, 5-(1-methyl-1H-pyrazol-3-yl)-2-{6-[methyl(2,2,6,6-tetramethylpiperidin-4-yl)amino]pyridazin-3-yl}pyridin-3-ol]", "IC50": "≤ 100"}
{"compound": "CC1(C)C[C@H](Oc2ccc(-c3ncc(-c4cn[nH]c4F)cc3O)nn2)[C@H](F)C(C)(C)N1", "note": "(single isomer, unassigned) [Compound 22, 5-(5-fluoro-1H-pyrazol-4-yl)-2-(6-{[(3R,4S)-3-fluoro-2,2,6,6-tetramethylpiperidin-4-yl]oxy}pyridazin-3-yl)pyridin-3-ol or 5-(5-fluoro-1H-pyrazol-4-yl)-2-(6-{[(3S,4R)-3-fluoro-2,2,6,6-tetramethylpiperidin-4-yl]oxy}pyridazin-3-yl)pyridin-3-ol]", "IC50": "100 to 500"}
{"compound": "Cc1cn2cc(-c3cnc(-c4ccc(O[C@@H]5CC(C)(C)NC(C)(C)[C@@H]5F)nn4)c(O)c3)cc2c(C)n1.Cc1cn2cc(-c3cnc(-c4ccc(O[C@H]5CC(C)(C)NC(C)(C)[C@H]5F)nn4)c(O)c3)cc2c(C)n1", "note": "(mixture of isomers) [Compound 67, 5-(1,3-dimethylpyrrolo[1,2-a]pyrazin-7-yl)-2-(6-{[(3R,4S)-3-fluoro-2,2,6,6-tetramethylpiperidin-4-yl]oxy}pyridazin-3-yl)pyridin-3-ol and 5-(1,3-dimethylpyrrolo[1,2-a]pyrazin-7-yl)-2-(6-{[(3S,4R)-3-fluoro-2,2,6,6-tetramethylpiperidin-4-yl]oxy}pyridazin-3-yl)pyridin-3-ol]", "IC50": "≤ 100"}
{"compound": "C[C@@H]1CN(c2ccc(-c3ncc(-c4ccc5nn(C)cc5c4)cc3O)nn2)C[C@H](C)N1", "note": "[Compound 124, 2-{6-[(3R,5S)-3,5-dimethylpiperazin-1-yl]pyridazin-3-yl}-5-(2-methyl-2H-indazol-5-yl)pyridin-3-ol and 2-{6-[(3S,5R)-3,5-dimethylpiperazin-1-yl]pyridazin-3-yl}-5-(2-methyl-2H-indazol-5-yl)pyridin-3-ol]", "IC50": "≤ 100"}
{"compound": "2-(6-{[(3R,4S)-3-fluoro-2,2,6,6-tetramethylpiperidin-4-yl]oxy}pyridazin-3-yl)-5-(2-methyl[1,2,4]triazolo[1,5-a]pyridin-6-yl)pyridin-3-ol and 2-(6-{[(3S,4R)-3-fluoro-2,2,6,6-tetramethylpiperidin-4-yl]oxy}pyridazin-3-yl)-5-(2-methyl[1,2,4]triazolo[1,5-a]pyridin-6-yl)pyridin-3-ol [Compound 55]", "IC50": "≤ 100"}
